What was measured:
ARE/Scr dsDNA = experiment: DNA binding by fluorescence polarization, ARE/Scr dsDNA; conditions: ΔNTD AR expressed and purified in presence of enzalutamide (20 μM) vs DHT
[1] = system: AR binding from chromatin; conditions: ChIP assays; cited from earlier work
ARE dsDNA = experiment: DNA binding by fluorescence polarization, minimal ARE dsDNA; conditions: ΔNTD AR, specificity control
ΔNTD AR = experiment: Peptide binding by fluorescence polarization; set-up: species or system mouse
AR LBD = conditions: cited from earlier work
[2] = system: ARE containing double-stranded DNA (dsDNA) templates; experiment: DNA binding by fluorescence polarization, all ARE dsDNAs tested; conditions: FL AR relative to ΔNTD AR, DHT-bound

Q: What does the source list for `CNC(=O)c1ccc(N2C(=S)N(c3ccc(C#N)c(C(F)(F)F)c3)C(=O)C2(C)C)cc1F` [ENZ, enzalutamide]?
A: reduction of AR DNA binding relative to DHT (ARE/Scr dsDNA): twofold; displacement of AR from chromatin [1]: displaces AR binding from chromatin in cells

Q: Which “stimulation of AR DNA binding” value (ARE dsDNA) does the source give for “bovine serum albumin (BSA): specificity control” here?
A: Its value is “failed to stimulate AR”.

Q: For QIQLWHFILELLRKEEY [ERF AIM], which “affinity compared to the ERG AIM” value (ΔNTD AR; ΔNTD AR) is on record?
A: Its value is “slightly less than the ERG AIM”.

Q: Which “affinity of AF1 for AR LBD” value (AR LBD) does the source give for KTYRGAFQNLFQSVREA [AF1] here?
A: Its value is “micromolar”.

Q: And the “binding to ΔNTD AR with full-length ERG present” value (ΔNTD AR; equimolar full-length ERG, fluorescein-labeled AF1 peptide)?
A: The value was “further decrease in AF1 binding”.

Q: What about the “affinity for ΔNTD AR compared to ERG AIM peptide” value (ΔNTD AR; presence and absence of DNA, fluorescein-labeled AF1 peptide) of the same molecule?
A: The value was “more than an order of magnitude reduced affinity”.

B1: FL AR: recombinant AR with the N terminus intact (protein)
chain: MEVQLGLGRVYPRPPSKTYRGAFQNLFQSVREAIQNPGPRHPEAANIAPPGACLQQRQETSPRRRRRQQHTEDGSPQAHIRGPTGYLALEEEQQPSQQQAASEGHPESSCLPEPGAATAPGKGLPQQPPAPPDQDDSAAPSTLSLLGPTFPGLSSCSADIKDILNEAGTMQLLQQQQQQQQHQQQHQQHQQQQEVISEGSSARAREATGAPSSSKDSYLGGNSTISDSAKELCKAVSVSMGLGVEALEHLSPGEQLRGDCMYASLLGGPPAVRPTPCAPLPECKGLPLDEGPGKSTEETAEYSSFKGGYAKGLEGESLGCSGSSEAGSSGTLEIPSSLSLYKSGALDEAAAYQNRDYYNFPLALSGPPHPPPPTHPHARIKLENPLDYGSAWAAAAAQCRYGDLGSLHGGSVAGPSTGSPPATTSSSWHTLFTAEEGQLYGPGGGGGSSSPSDAGPVAPYGYTRPPQGLTSQESDYSASEVWYPGGVVNRVPYPSPNCVKSEMGPWMENYSGPYGDMRLDSTRDHVLPIDYYFPPQKTCLICGDEASGCHYGALTCGSCKVFFKRAAEGKQKYLCASRNDCTIDKFRRKNCPSCRLRKCYEAGMTLGARKLKKLGNLKLQEEGENSNAGSPTEDPSQKMTVSHIEGYECQPIFLNVLEAIEPGVVCAGHDNNQPDSFAALLSSLNELGERQLVHVVKWAKALPGFRNLHVDDQMAVIQYSWMGLMVFAMGWRSFTNVNSRMLYFAPDLVFNEYRMHKSRMYSQCVRMRHLSQEFGWLQITPQEFLCMKALLLFSIIPVDGLKNQKFFDELRMNYIKELDRIIACKRKNPTSCSRRFYQLTKLLDSVQPIARELHQFTFDLLIKSHMVSVDFPEMMAEIISVQVPKILSGKVKPIYFHTQ
Q: Which “impairment of DNA binding by presence of NTD” value [2] does the source give for B1 here?
A: The value was “greater than 10 fold”.

Reference: publication PMC7165421 (Proceedings of the National Academy of Sciences of the …, 2020)
